Results published in patent publication US5955440A, “Macrolide LHRH antagonists” (Abbott Laboratories, priority 1998, dated 1999).
Where a name gives a salt, the structure may show the parent alone.

Molecular target: T1, LHRH rat pituitary receptor (Rattus norvegicus, UniProt P30969)
T1 construct: from tissue; host or cells: rat pituitary
T1 sequence (P30969 1-327): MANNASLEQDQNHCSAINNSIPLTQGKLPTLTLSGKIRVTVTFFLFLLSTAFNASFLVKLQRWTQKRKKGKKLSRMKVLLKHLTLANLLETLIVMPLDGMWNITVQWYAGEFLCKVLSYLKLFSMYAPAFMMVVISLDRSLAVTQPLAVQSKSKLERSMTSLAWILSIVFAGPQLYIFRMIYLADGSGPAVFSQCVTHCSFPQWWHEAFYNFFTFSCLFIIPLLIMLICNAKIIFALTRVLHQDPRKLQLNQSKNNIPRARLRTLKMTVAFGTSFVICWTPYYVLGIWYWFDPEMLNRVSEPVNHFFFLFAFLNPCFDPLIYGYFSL
Assay: LHRH rat pituitary receptor binding (pKI)
Conditions: negative logarithm of the equilibrium dissociation constants, Table 1, read-out: receptor binding affinity (pKI) (converted)
Procedure: Representative compounds of the present invention were evaluated in in vitro tests for LHRH rat pituitary receptor binding (pKI) and for LH inhibition from rat pituitary cells for antagonist potency (pA2). The tests employed the methods detailed in F. Haviv, et al. J. Med. Chem., 32: 2340-2344 (1989). The receptor binding affinity (pKI) is the negative logarithm of the equilibrium dissociation constants.

Row | Ki [nM] | Structure (SMILES)
1 | 3.02 | CC[C@H]1OC(=O)[C@H](C)[C@@H](O[C@H]2C[C@@](C)(OC)[C@@H](O)[C@H](C)O2)[C@H](C)[C@@H](O[C@@H]2O[C@H](C)C[C@H](N(C)C(C)C)[C@H]2O)[C@](C)(OC)C[C@@H](C)C(=O)[C@H](C)[C@H]2N(CCc3ccc(F)c(F)c3)C(=O)O[C@]12C [Example 53, 3'-N-Desmethyl-3'-N-isopropyl-11-deoxy-11-[carboxy-(3,4-difluorophenethylamino)]-6-O-methyl-erythromycin A 11,12-(cyclic carbamate)]
2 | 7.94 | CC[C@H]1OC(=O)[C@H](C)[C@@H](O[C@H]2C[C@@](C)(OC)[C@@H](O)[C@H](C)O2)[C@H](C)[C@@H](O[C@@H]2O[C@H](C)C[C@H](N(C)C3CCC3)[C@H]2O)[C@](C)(OC)C[C@@H](C)C(=O)[C@H](C)[C@H]2N(CCc3ccc(Cl)c(F)c3)C(=O)O[C@]12C [Example 52, 3'-N-Desmethyl-3'-N-cyclobutyl-11-deoxy-11-[carboxy-(4-chloro-3-fluorophenethylamino)]-6-O-methyl-erythromycin A 11,12-(cyclic carbamate)]
3 | 1.78 | CC[C@H]1OC(=O)[C@H](C)[C@@H](O[C@H]2C[C@@](C)(OC)[C@@H](O)[C@H](C)O2)[C@H](C)[C@@H](O[C@@H]2O[C@H](C)C[C@H](N(C)CCC[S+](C)[O-])[C@H]2O)[C@](C)(OC)C[C@@H](C)C(=O)[C@H](C)[C@H]2N(CCc3ccc(Cl)c(Cl)c3)C(=O)O[C@]12C (stereo partly shown) [Example 56, 3'-N-Desmethyl-3'-N-[3-(methylsulfoxy)propyl]-11-deoxy-11-[carboxy-(3,4-dichlorophenethylamino)]-6-O-methyl-erythromycin A 11,12-(cyclic carbamate)]
4 | 3.24 | CC[C@H]1OC(=O)[C@H](C)[C@@H](O[C@H]2C[C@@](C)(OC)[C@@H](O)[C@H](C)O2)[C@H](C)[C@@H](O[C@@H]2O[C@H](C)C[C@H](N(C)C3CCC3)[C@H]2O)[C@](C)(OC)C[C@@H](C)C(=O)[C@H](C)[C@H]2N(CCc3ccc(Cl)c(Cl)c3)C(=O)O[C@]12C [Example 4, 3'-N-Desmethyl-3'-N-cyclobutyl-11-deoxy-11-[carboxy-(3,4-dichlorophenethylamino)]-6-O-methyl-erythromycin A 11,12-(cyclic carbamate) hydrochloride]
5 | 2.69 | CCCN(C)[C@H]1C[C@@H](C)O[C@@H](O[C@@H]2[C@@H](C)[C@H](O[C@H]3C[C@@](C)(OC)[C@@H](O)[C@H](C)O3)[C@@H](C)C(=O)O[C@H](CC)[C@@]3(C)OC(=O)N(CCNc4ccc(Cl)cc4)[C@@H]3[C@@H](C)C(=O)[C@H](C)C[C@@]2(C)OC)[C@@H]1O [Example 60, 3'-N-Desmethyl-3'-N-propyl-11-deoxy-11-[carboxy-(4-chloroanilinoethylamino)]-6-O-methyl-erythromycin A 11,12-(cyclic carbamate)]
6 | 7.41 | CC[C@H]1OC(=O)[C@H](C)[C@@H](O[C@H]2C[C@@](C)(OC)[C@@H](O)[C@H](C)O2)[C@H](C)[C@@H](O[C@@H]2O[C@H](C)C[C@H](N(C)Cc3ncc[nH]3)[C@H]2O)[C@](C)(OC)C[C@@H](C)C(=O)[C@H](C)[C@H]2N(CCc3ccc(Cl)c(Cl)c3)C(=O)O[C@]12C [Example 63, 3'-N-Desmethyl-3'-N-(2-imidazolyl)methyl-11-deoxy-11-[carboxy-(3,4-dichlorophenethylamino)]-6-O-methyl-erythromycin A 11,12-(cyclic carbamate)]
7 | 10 | CC[C@H]1OC(=O)[C@H](C)[C@@H](O[C@H]2C[C@@](C)(OC)[C@@H](O)[C@H](C)O2)[C@H](C)[C@@H](O[C@@H]2O[C@H](C)C[C@H](N(C)Cc3ccncc3)[C@H]2O)[C@](C)(OC)C[C@@H](C)C(=O)[C@H](C)[C@H]2N(CCc3ccc(Cl)cc3)C(=O)O[C@]12C [Example 34, 3'-N-Desmethyl-3'-N-(4-pyridylmethyl)-11-deoxy-11-[carboxy-(4-chlorophenethylamino)]-6-O-methyl-erythromycin A 11,12-(cyclic carbamate)]
8 | 4.07 | CC[C@H]1OC(=O)[C@H](C)[C@@H](O[C@H]2C[C@@](C)(OC)[C@@H](O)[C@H](C)O2)[C@H](C)[C@@H](O[C@@H]2O[C@H](C)C[C@H](N(C)CCc3ccccn3)[C@H]2O)[C@](C)(OC)C[C@@H](C)C(=O)[C@H](C)[C@H]2N(CCc3ccc(F)c(Cl)c3)C(=O)O[C@]12C [Example 90, 3'-N-Desmethyl-3'-N-(2-pyridyl)ethyl-11-deoxy-11-[carboxy-(3-chloro-4-fluorophenethylamino)]-6-O-methyl-erythromycin A 11,12-(cyclic carbamate)]
9 | 5.89 | CC[C@H]1OC(=O)[C@H](C)[C@@H](O[C@H]2C[C@@](C)(OC)[C@@H](O)[C@H](C)O2)[C@H](C)[C@@H](O[C@@H]2O[C@H](C)C[C@H](N(C)C3CCCC3)[C@H]2O)[C@](C)(OC)C[C@@H](C)C(=O)[C@H](C)[C@H]2N(CCc3ccc(Cl)c(F)c3)C(=O)O[C@]12C [Example 18, 3'-N-Desmethyl-3'-N-cyclopentyl-11-deoxy-11-[carboxy-(4-chloro-3-fluorophenethylamino)]-6-O-methyl-erythromycin A 11,12-(cyclic carbamate)]
10 | 2.09 | CC[C@H]1OC(=O)[C@H](C)[C@@H](O[C@H]2C[C@@](C)(OC)[C@@H](O)[C@H](C)O2)[C@H](C)[C@@H](O[C@@H]2O[C@H](C)C[C@H](N(C)CCCc3ccc(C)cn3)[C@H]2O)[C@](C)(OC)C[C@@H](C)C(=O)[C@H](C)[C@H]2N(CCc3ccc(F)c(Cl)c3)C(=O)O[C@]12C [Example 88, 3'-N-Desmethyl-3'-N-[3-(5-methyl-2-pyridyl)propyl]-11-deoxy-11[carboxy-(3-chloro-4-fluorophenethylamino)]-6-O-methyl-erythromycin A 11,12-(cyclic carbamate)]
11 | 9.12 | CC[C@H]1OC(=O)[C@H](C)[C@@H](O[C@H]2C[C@@](C)(OC)[C@@H](O)[C@H](C)O2)[C@H](C)[C@@H](O[C@@H]2O[C@H](C)C[C@H](N(C)CCCc3ccncc3)[C@H]2O)[C@](C)(OC)C[C@@H](C)C(=O)[C@H](C)[C@H]2N(CCc3ccc(Cl)c(Cl)c3)C(=O)O[C@]12C [Example 76, 3'-N-Desmethyl-3'-N-[3-(4-pyridyl)propyl]-11-deoxy-11-[carboxy-(3,4-dichlorophenethylamino)]-6-O-methyl-erythromycin A 11,12-(cyclic carbamate)]
12 | 8.51 | CCCN(C)[C@H]1C[C@@H](C)O[C@@H](O[C@@H]2[C@@H](C)[C@H](O[C@H]3C[C@@](C)(OC)[C@@H](O)[C@H](C)O3)[C@@H](C)C(=O)O[C@H](CC)[C@@]3(C)OC(=O)N(CCc4ccc(C)c(C)c4)[C@@H]3[C@@H](C)C(=O)[C@H](C)C[C@@]2(C)OC)[C@@H]1O [Example 41, 3'-N-Desmethyl-3'-N-propyl-11-deoxy-11-[carboxy-(3,4-dimethylphenethylamino)]-6-O-methyl-erythromycin A 11,12-(cyclic carbamate)]
13 | 1.74 | CC[C@H]1OC(=O)[C@H](C)[C@@H](O[C@H]2C[C@@](C)(OC)[C@@H](O)[C@H](C)O2)[C@H](C)[C@@H](O[C@@H]2O[C@H](C)C[C@H](N(C)C(C)C)[C@H]2O)[C@](C)(OC)C[C@@H](C)C(=O)[C@H](C)[C@H]2N(CC3(c4ccc(Cl)c(Cl)c4)CC3)C(=O)O[C@]12C [Example 10, 3'-N-Desmethyl-3'-N-isopropyl-11-deoxy-11-[carboxy-(α,α-cyclopropyl-3,4-dichlorophenethylamino)]-6-O-methyl-erythromycin A 11,12-(cyclic carbamate)]
14 | 1.26 | CC[C@H]1OC(=O)[C@H](C)[C@@H](O[C@H]2C[C@@](C)(OC)[C@@H](O)[C@H](C)O2)[C@H](C)[C@@H](O[C@@H]2O[C@H](C)C[C@H](N(C)Cc3ccco3)[C@H]2O)[C@](C)(OC)C[C@@H](C)C(=O)[C@H](C)[C@H]2N(CCc3ccc(Cl)c(Cl)c3)C(=O)O[C@]12C [Example 75, 3'-N-Desmethyl-3'-N-(2-furylmethyl)-11-deoxy-11-[carboxy-(3,4-dichlorophenethylamino)]-6-O-methyl-erythromycin A 11,12-(cyclic carbamate)]
15 | 1.45 | CCCN(C)[C@H]1C[C@@H](C)O[C@@H](O[C@@H]2[C@@H](C)[C@H](O[C@H]3C[C@@](C)(OC)[C@@H](O)[C@H](C)O3)[C@@H](C)C(=O)O[C@H](CC)[C@@]3(C)OC(=O)N(CCc4ccc(F)c(Cl)c4)[C@@H]3[C@@H](C)C(=O)[C@H](C)C[C@@]2(C)OC)[C@@H]1O [Example 44, 3'-N-Desmethyl-3'-N-propyl-11-deoxy-11-[carboxy-(3-chloro-4-fluorophenethylamino)]-6-O-methyl-erythromycin A 11,12-(cyclic carbamate)]
16 | 4.27 | CC[C@H]1OC(=O)[C@H](C)[C@@H](O[C@H]2C[C@@](C)(OC)[C@@H](O)[C@H](C)O2)[C@H](C)[C@@H](O[C@@H]2O[C@H](C)C[C@H](N(C)C(C)C)[C@H]2O)[C@](C)(OC)C[C@@H](C)C(=O)[C@H](C)[C@H]2N(CCc3ccc(Cl)c(F)c3)C(=O)O[C@]12C [Example 17, 3'-N-Desmethyl-3'-N-isopropyl-11-deoxy-11-[carboxy-(4-chloro-3-fluorophenethylamino)]-6-O-methyl-erythromycin A 11,12-(cyclic carbamate)]
